Reference: the METLIN SMRT retention time set (Domingo-Almenara et al. 2019)

Test: gradient 5% acetonitrile 3 min, to 50% in 2 min, to 85% in 15 min, held 3 min, 100 µL/min
Settings: column: Zorbax Extend-C18 2.1 x 50 mm; eluents: water / acetonitrile, 0.1% formic acid
How it was run: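 Data were gathered over 3 months by HPLC coupled to a quadrupole time-of-flight mass spectrometer, operated in positive and negative ionization mode. Mixtures of ~100 pure standards ran on a Zorbax Extend-C18 column (2.1 × 50 mm, 1.8 μm) at 100 μL/min, with water and acetonitrile each containing 0.1% formic acid and dead and dwell volumes of 40 μL and 900 μL. Retention time was read from adduct peaks picked by computer and checked manually.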

RP-LC retention time [s] | Structure (SMILES)
702 | CCn1c(=O)sc2cc(S(=O)(=O)N3CCC(C(=O)Nc4cc(C)ccn4)CC3)ccc21
661 | CC1(C)CC(NC(=O)COc2ccc(Cl)cc2Br)CC(C)(C)N1
950 | CC(C)CCNC(=O)C1(C)CCc2ccccc2C(=O)N1CCc1c[nH]c2ccccc12 (centres undefined)
728 | COc1ccc(CNC(=O)C2(c3ccc(NC(C)=O)cc3)CCC2)cc1
571 | CCSc1nnc(NC(=O)CNC(=O)c2ccc(=O)[nH]c2)s1
731 | O=C(Nc1ccc2c(c1)N(C(=O)C1CCCO1)CC2)c1c(F)cccc1Cl (centres undefined)
721 | CN1C(=O)C(c2c(-c3ccc(Br)cc3)[nH]c3[nH]c(=O)[nH]c(=O)c23)c2ccccc21 (centres undefined)
864 | Cn1nc(-c2nnc(-c3ccccc3Cl)o2)c2c1CCN(C(=O)COc1ccccc1)C2
986 | CCOC(=O)C1CCCN(c2c(N3CCC(Cc4ccccc4)CC3)c(=O)c2=O)C1 (centres undefined)
946 | CC(=O)Nc1cccc2c(C(=O)N3CCN(c4ccccc4Cl)CC3)ccnc12
818 | COc1ccc(CC(=O)N(C)CC2(C)CCOCC2)cc1Cl
912 | O=S(=O)(CCc1noc(-c2ccc3cc[nH]c3c2)n1)c1ccccc1
829 | CC(C(=O)NCCc1c[nH]c2ccccc12)n1c2ccccc2c2cnn(C)c(=O)c21 (centres undefined)
707 | CC(C)n1c(N2CCCN(C(=O)c3ccnn3C)CC2)cc(=O)n(C(C)C)c1=O
855 | COc1ccc(N2CCN(c3ccc4cc(S(=O)(=O)N5CCCC5)ccc4n3)CC2)cc1
583 | COc1ccc(N2CCN(CCNC(=O)C3CCCN(c4cc(=O)n(C)c(=O)n4C)C3)CC2)cc1 (centres undefined)
817 | CCOC(=O)c1ccc(Nc2ncnc3c2cnn3C)cc1
827 | COc1ccccc1-c1nc(Cn2nnc(-c3nc(-c4ccccn4)no3)c2C)c(C)o1
851 | Cc1cccc(NC(=O)Cn2c(=O)n(-c3ccccc3)c3ncccc32)c1
1150 | COC(=O)c1ccc2c(=O)n(CCc3ccccc3)c(N3CCSCC3)nc2c1
566 | CN(C)S(=O)(=O)c1ccc(C(=O)Oc2coc(CSc3nccn3C)cc2=O)cc1

RP-LC retention time [s] | Structure (SMILES)
752 | Cc1cccc(CNC2=NCCNC23CCN(S(=O)(=O)c2ccccc2C)CC3)c1
1020 | COc1ccc(-c2ncc3c(n2)CCN(C(=O)c2cccc(Br)c2)C3)cc1
605 | O=C(c1c(-c2ccccc2)nnc2ccccc12)N1CCN(c2ccccn2)CC1
609 | Cc1onc(-c2c(Cl)cccc2Cl)c1C(=O)N1CCN(C)CC1
729 | CCOC(=O)c1c(C)[nH]c(CCC(=O)NCCc2c(C)noc2C)c1C
684 | COc1ccc(Nc2c(-c3ccc(N(C)C)cc3)nc3ncccn23)cc1
679 | CCOC(=O)C1CCN(S(=O)(=O)c2cc3n(c2)CCCN(CC)C3=O)CC1
664 | Cc1cccc2nnc(N3CCCC(C(=O)Nc4ccc5c(c4)OCO5)C3)n12 (centres undefined)
1030 | COc1ccc(NC(=O)C2=Cc3ccccc3OC=C2)c(OC)c1
1020 | COc1cccc(-n2nnc(-c3nsc(Nc4ccc(OC)c(Cl)c4)n3)c2C)c1
943 | CCCCn1cc(S(=O)(=O)Nc2ccc(C)cc2)c2cccnc21
895 | COc1ccc(NC(=O)c2noc3c2CC(C)CC3)cc1OC (centres undefined)
972 | CCc1ccc(NC(=O)N2CCCC(C)(C(=O)NCc3ccc(F)cc3)C2)cc1 (centres undefined)
818 | CCCC(=O)Nc1ccc(-c2nc(Cn3nc(C)cc3C)c(C)o2)cc1
948 | CCOC(=O)c1noc2ncnc(N3CCc4ccccc43)c12
744 | COc1ccc(-c2cn3c(CC(=O)Nc4cc(F)ccc4F)csc3n2)cc1OC
1060 | CCOc1cccc(-c2noc(Cn3c(=O)n(Cc4ccc(OC)cc4)c(=O)c4sccc43)n2)c1
651 | Cc1nnc(-c2ccc3ccn(CC(=O)N4CCN(Cc5ccc6c(c5)OCO6)CC4)c3c2)o1
781 | CC(=O)c1cccc(S(=O)(=O)NCC2CCN(C(=O)c3cc4ccccc4o3)CC2)c1
790 | CC1=C(c2ccccc2)S(=O)(=O)N=C1N1CCC(NC(=O)NCC(C)C)CC1
742 | N#Cc1ccc(C(=O)NC2CCN(c3ccccc3)C2=O)cc1 (centres undefined)

RP-LC retention time [s] | Structure (SMILES)
964 | CC(C)CNC(=O)NC1CCN(c2nc3cccnc3n(Cc3ccccc3)c2=O)CC1
1120 | Cc1nc(-c2cc(S(=O)(=O)Nc3cccc(Cl)c3C)c(C)s2)cs1
886 | COc1ccc(N2C=C(C(=O)N3CCOCC3)S(=O)(=O)c3ccc(Cl)cc32)cc1Cl
682 | Cc1ccc(Cl)cc1NC(=O)N1CCC(n2cnc3cccnc32)CC1
1080 | COc1ccc(NC(=O)N2c3ccccc3CC2c2nc(C(C)C)no2)c(OC)c1 (centres undefined)
998 | O=C(CCc1ccccc1)NCCn1c(C(F)(F)F)nc2cccnc21
601 | COc1ccccc1-c1ccc(N2CCN(C(=O)NC3CCCCC3)CC2)nn1
617 | Cc1nc(NC(=O)Cc2c(C)[nH]c(=O)[nH]c2=O)sc1C(=O)Nc1ccccc1
679 | CN(C)c1nc2cc(C(=O)N3CCCCC3)sc2n1-c1ccccc1
952 | COc1ccc2c(c1)c(N1CCCC1=O)c(C(=O)Nc1ccc(F)cc1)n2C
767 | O=C(c1cnccn1)N1CCCn2nc(-c3cccc(Cl)c3)cc2C1
820 | CCOc1ccc(Cl)cc1S(=O)(=O)N1CCC(C(=O)N2CCCC2)CC1
706 | CCn1c(C)c(CCC(=O)NC(C)C)c(=O)n2nc(-c3ccccc3)nc12
860 | Cc1cccc(-c2cc3n(n2)CCCN(C(=O)c2n[nH]c4ccccc24)C3)c1
932 | CCN1C(=O)c2ccccc2Oc2ccc(C(=O)NCc3cc(OC)ccc3OC)cc21
785 | CCn1nccc1C(=O)N1CCCC1c1ccc(F)cc1 (centres undefined)
866 | CCOC(=O)C(=O)Nc1ccc(SCc2nnc(-c3ccc4c(c3)OCO4)o2)cc1
1150 | Cc1ccc2oc(-c3noc(C(=O)NCc4cccs4)n3)c(C)c2c1
770 | N#CCCN(c1ccc(C=O)cc1)S(=O)(=O)c1ccccc1
1080 | CCCc1ccc(S(=O)(=O)Nc2ccc3nc(S(=O)(=O)CCC)sc3c2)cc1
609 | COc1ccc(S(=O)(=O)N2CCN(CCc3cn(C)c4ncccc34)CC2)cc1

Structure (SMILES) | RP-LC retention time [s]
C=C(C)[C@H]1O[C@H]2CC[C@@]3(C)[C@@](O)(CC[C@H]4[C@@H]5OC(C)(C)[C@H]6C[C@@H]7C(=C)Cc8c(Cl)cc9[nH]c(c5c9c8[C@@]76O)[C@@]43C)[C@]23O[C@@H]3[C@H]1O | 1180
